PMC10313052, “Filarial DAF-12 sense the host serum to resume iL3 development during infection” (PLOS Pathogens, 2023)
pEC50: −log10 of the molar value.

Target: T1, BmaDAF-12 (Brugia malayi, UniProt A0A4E9F2L4, R841H)
T1 sequence (A0A4E9F2L4 639-880 R841H): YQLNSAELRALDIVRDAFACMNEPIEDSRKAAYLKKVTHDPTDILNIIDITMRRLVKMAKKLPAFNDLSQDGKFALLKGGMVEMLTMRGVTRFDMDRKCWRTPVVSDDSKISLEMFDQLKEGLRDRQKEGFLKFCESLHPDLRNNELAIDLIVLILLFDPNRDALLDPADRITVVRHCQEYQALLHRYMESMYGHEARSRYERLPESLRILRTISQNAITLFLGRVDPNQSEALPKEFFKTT
Test: cell-based

CC(CCCC(C)C1CCC2C3=CCC4CC(=O)CCC4(C)C3CCC21C)C(=O)O [Δ7-dafachronic acid, (25S)-Δ7-dafachronic acid]
pEC50: 8.74
